In brackets after ≈: the same amount, converted by molar mass. Like-named read-outs stand apart in the source and are kept apart here.
Test system: MAI
Assay: antibiotic sensitivity (MIC) of MAI strains, paraffin slide culture and microliter assays
Assay type: cell-based, Mycobacterium avium-intracellulare
Parameters: key: NG: No Growth
From the text: The present invention has met the above-described need. In one embodiment, it provides a method of automatically testing the sensitivity of a paraffinophilic microorganism to different antimicrobial agents, such as antibiotics, and concentrations thereof, by providing a plurality of receptacles, each containing an amount of liquid medium, an antimicrobial agent to be tested and the microorganism to be tested. In each of the receptacles is placed a slide containing a paraffin source. The receptacles are then incubated, after which a light scatter sensing means automatically and sequentially monitors the extent of microorganism growth on the slides. The extent of colony growth is employed to determine which antimicrobial agent in which concentration is effective to resist growth of the microorganism. A preferred light scatter sensing means is a nephelometer.
Referring specifically to FIG. 1, there is shown a preferred embodiment of the present invention usable in a method of automatically testing the sensitivity of a pure culture of a microorganism to different antimicrobial agents and concentrations thereof. In this embodiment, a microorganism, which may have been previously speciated as by the technique taught in U.S. Pat. No. 5,153, 119, has been introduced into a plurality of receptacles, each containing an amount of liquid medium and antimicrobial agent to be tested. A paraffin slide is introduced into each of the receptacles which are subsequently incubated. The receptacles 2-22 (even numbers only) are fixedly secured to an elongated, substantially rigid movable carrier member 26, such that the receptacles 2-22 will be translated therewith in the direction shown by the arrow A. The carrier member 26 may be made of any suitable material, such as aluminum, steel, stainless steel, or resinous plastic, for example. The receptacles 2-22, respectively, contain slides 32-52 (even numbers only). The slides 32-52 are fixedly secured, respectively, within receptacles 2-22 which may test tubes. The slides 32-52 are generally oriented so as to have their elongated direction aligned with the direction of travel of the carrier 26. As the carrier moves in the direction of arrow A, the slides 2-22 will sequentially be positioned in operative relationship to the light scatter sensing means which consists of light source 60, which directs a light beam toward light detector 62. In the preferred embodiment, a beam of visible light from light source 60 will impinge upon slide 32, with the growth of the microorganism thereon producing a corresponding scatter of light which is received by the light receiving sensor 62 and converts the received light into an appropriate output electrical signal which will be delivered to computer means 64. The computer means 64, in turn, provides output to output means 66, which may conveniently be a display, such as a cathode ray tube or a hard copy printer, for example. The degree of light scatter will be related to the extent of microorganism growth with light scatter increasing as growth on the slide increases.
The computer means 64 may be a general purpose digital microprocessor. It may be programmed in a manner readily known to those skilled in the art to sequentially compare the light scatter value of each slide 32-52 with that of a control slide and to provide an output to output means 66, such as a visual screen display or hard copy, with or without prior enhancement, which indicates the difference between the control slide and the specific slides containing the same pure culture of a paraffinophilic microorganism, but exposed to different concentrations of different or the same antimicrobial agents, such an antibiotics. In this manner, there is provided the minimal concentration level of a specific antimicrobial agent that must be used to control growth of the microorganism. Also, the minimum bactericidal concentration may be determined. […]

[1] = Table 2, Exp. Series I, strain 7

Compound: NCC[C@H](O)C(=O)N[C@@H]1C[C@H](N)[C@@H](O[C@H]2O[C@H](CN)[C@@H](O)[C@H](O)[C@H]2O)[C@H](O)[C@H]1O[C@H]1O[C@H](CO)[C@@H](O)[C@H](N)[C@H]1O [amikacin]
- MIC (Mycobacterium avium-intracellulare, Table 2, Exp. Series I, strain 1, read-out: MIC): > 16 µg/mL
- MIC (Mycobacterium avium-intracellulare, Table 2, Exp. Series I, strain 2, read-out: MIC): > 16 µg/mL
- MIC (Mycobacterium avium-intracellulare, Table 2, Exp. Series I, strain 3, read-out: MIC): 6.4 µg/mL (≈ 10.9 µM)
- MIC (Mycobacterium avium-intracellulare, Table 2, Exp. Series I, strain 4, read-out: MIC): 3.2 µg/mL (≈ 5.46 µM)
- MIC (Mycobacterium avium-intracellulare, Table 2, Exp. Series I, strain 5, read-out: MIC): 6.4 µg/mL (≈ 10.9 µM)
- MIC (Mycobacterium avium-intracellulare, Table 2, Exp. Series I, strain 6, read-out: MIC): 12 µg/mL (≈ 20.5 µM)
- MIC (Mycobacterium avium-intracellulare, Table 2, Exp. Series I, strain 8, read-out: MIC): > 16 µg/mL
- MIC (Mycobacterium avium-intracellulare, Table 2, Exp. Series I, strain 9, read-out: MIC): 12 µg/mL (≈ 20.5 µM)
- MIC (Mycobacterium avium-intracellulare, Table 2, Exp. Series I, strain 10, read-out: MIC): 6.4 µg/mL (≈ 10.9 µM)
- MIC (Mycobacterium avium-intracellulare, Table 2, Exp. Series I, strain 11, read-out: MIC): 7.3 µg/mL (≈ 12.5 µM)
- MIC (Mycobacterium avium-intracellulare, Table 2, Exp. Series I, strain 12, read-out: MIC): 3.2 µg/mL (≈ 5.46 µM)
- MIC (Mycobacterium avium-intracellulare, Table 2, Exp. Series I, strain 13, read-out: MIC): 3.2 µg/mL (≈ 5.46 µM)
- MIC (Mycobacterium avium-intracellulare, Table 2, Exp. Series I, strain 14, read-out: MIC): 9.6 µg/mL (≈ 16.4 µM)
- MIC (Mycobacterium avium-intracellulare, Table 2, Exp. Series I, strain 15, read-out: MIC): 6.4 µg/mL (≈ 10.9 µM)
- MIC (Mycobacterium avium-intracellulare, Table 2, Exp. Series I, strain 16, read-out: MIC): 6.4 µg/mL (≈ 10.9 µM)
- MIC (Mycobacterium avium-intracellulare, Table 2, Exp. Series II, strain 1, read-out: MIC): > 16 µg/mL
- MIC (Mycobacterium avium-intracellulare, Table 2, Exp. Series II, strain 2, read-out: MIC): 12 µg/mL (≈ 20.5 µM)
- MIC (Mycobacterium avium-intracellulare, Table 2, Exp. Series II, strain 3, read-out: MIC): 6.4 µg/mL (≈ 10.9 µM)
- MIC (Mycobacterium avium-intracellulare, Table 2, Exp. Series II, strain 4, read-out: MIC): 6.4 µg/mL (≈ 10.9 µM)
- MIC (Mycobacterium avium-intracellulare, Table 2, Exp. Series II, strain 5, read-out: MIC): 3.2 µg/mL (≈ 5.46 µM)
- MIC (Mycobacterium avium-intracellulare, Table 2, Exp. Series II, strain 6, read-out: MIC): 3.2 µg/mL (≈ 5.46 µM)
- MIC (Mycobacterium avium-intracellulare, Table 2, Exp. Series II, strain 7, read-out: MIC): 6.4 µg/mL (≈ 10.9 µM)
- MIC (Mycobacterium avium-intracellulare, Table 2, Exp. Series II, strain 8, read-out: MIC): > 16 µg/mL
- MIC (Mycobacterium avium-intracellulare, Table 2, Exp. Series II, strain 9, read-out: MIC): 3.2 µg/mL (≈ 5.46 µM)
- MIC (Mycobacterium avium-intracellulare, Table 2, Exp. Series II, strain 10, read-out: MIC): 6.4 µg/mL (≈ 10.9 µM)
- MIC (Mycobacterium avium-intracellulare, Table 2, Exp. Series II, strain 11, read-out: MIC): 9.6 µg/mL (≈ 16.4 µM)
- MIC (Mycobacterium avium-intracellulare, Table 2, Exp. Series II, strain 12, read-out: MIC): 6.4 µg/mL (≈ 10.9 µM)
- MIC (Mycobacterium avium-intracellulare, Table 2, Exp. Series II, strain 13, read-out: MIC): 9.6 µg/mL (≈ 16.4 µM)
- MIC (Mycobacterium avium-intracellulare, Table 2, Exp. Series II, strain 14, read-out: MIC): > 16 µg/mL
- MIC (Mycobacterium avium-intracellulare, Table 2, Exp. Series II, strain 15, read-out: MIC): 6.4 µg/mL (≈ 10.9 µM)
- MIC (Mycobacterium avium-intracellulare, Table 2, Exp. Series II, strain 16, read-out: MIC): 9.6 µg/mL (≈ 16.4 µM)
- MIC (Mycobacterium avium-intracellulare, Table 2, Exp. Series III, strain 1, read-out: MIC): 3.2 µg/mL (≈ 5.46 µM)
- MIC (Mycobacterium avium-intracellulare, Table 2, Exp. Series III, strain 2, read-out: MIC): 3.2 µg/mL (≈ 5.46 µM)
- MIC (Mycobacterium avium-intracellulare, Table 2, Exp. Series III, strain 3, read-out: MIC): 6.4 µg/mL (≈ 10.9 µM)
- MIC (Mycobacterium avium-intracellulare, Table 2, Exp. Series III, strain 4, read-out: MIC): 3.2 µg/mL (≈ 5.46 µM)
- MIC (Mycobacterium avium-intracellulare, Table 2, Exp. Series III, strain 5, read-out: MIC): 3.2 µg/mL (≈ 5.46 µM)
- MIC (Mycobacterium avium-intracellulare, Table 2, Exp. Series III, strain 6, read-out: MIC): 3.2 µg/mL (≈ 5.46 µM)
- MIC (Mycobacterium avium-intracellulare, Table 2, Exp. Series III, strain 7, read-out: MIC): 6.4 µg/mL (≈ 10.9 µM)
- MIC (Mycobacterium avium-intracellulare, Table 2, Exp. Series III, strain 8, read-out: MIC): 3.2 µg/mL (≈ 5.46 µM)
- MIC (Mycobacterium avium-intracellulare, Table 2, Exp. Series III, strain 9, read-out: MIC): 3.2 µg/mL (≈ 5.46 µM)
- MIC (Mycobacterium avium-intracellulare, Table 2, Exp. Series III, strain 10, read-out: MIC): 3.2 µg/mL (≈ 5.46 µM)
- MIC (Mycobacterium avium-intracellulare, Table 2, Exp. Series III, strain 11, read-out: MIC): 6.4 µg/mL (≈ 10.9 µM)
- MIC (Mycobacterium avium-intracellulare, Table 2, Exp. Series III, strain 12, read-out: MIC): 6.4 µg/mL (≈ 10.9 µM)
- MIC (Mycobacterium avium-intracellulare, Table 2, Exp. Series III, strain 13, read-out: MIC): 6.4 µg/mL (≈ 10.9 µM)
- MIC (Mycobacterium avium-intracellulare, Table 2, Exp. Series III, strain 14, read-out: MIC): 6.4 µg/mL (≈ 10.9 µM)
- MIC (Mycobacterium avium-intracellulare, Table 2, Exp. Series III, strain 15, read-out: MIC): 3.2 µg/mL (≈ 5.46 µM)
- MIC (Mycobacterium avium-intracellulare, Table 2, Exp. Series III, strain 16, read-out: MIC): 3.2 µg/mL (≈ 5.46 µM)
- Days to Confluency (Table 2, Exp. Series I, strain 1): 7 days
- Days to Confluency (Table 2, Exp. Series I, strain 2): 7 days
- Days to Confluency (Table 2, Exp. Series I, strain 3): 8 days
- Days to Confluency (Table 2, Exp. Series I, strain 4): 8 days
- Days to Confluency (Table 2, Exp. Series I, strain 5): 7 days
- Days to Confluency (Table 2, Exp. Series I, strain 6): 7 days
- Days to Confluency [1]: NG
- MIC [1]: NG
- Days to Confluency (Table 2, Exp. Series I, strain 8): 7 days
- Days to Confluency (Table 2, Exp. Series I, strain 9): 8 days
- Days to Confluency (Table 2, Exp. Series I, strain 10): 6 days
- Days to Confluency (Table 2, Exp. Series I, strain 11): 5 days
- Days to Confluency (Table 2, Exp. Series I, strain 12): 5 days
- Days to Confluency (Table 2, Exp. Series I, strain 13): 6 days
- Days to Confluency (Table 2, Exp. Series I, strain 14): 5 days
- Days to Confluency (Table 2, Exp. Series I, strain 15): 5 days
- Days to Confluency (Table 2, Exp. Series I, strain 16): 5 days
- Days to Confluency (Table 2, Exp. Series II, strain 1): 7 days
- Days to Confluency (Table 2, Exp. Series II, strain 2): 7 days
- Days to Confluency (Table 2, Exp. Series II, strain 3): 9 days
- Days to Confluency (Table 2, Exp. Series II, strain 4): 5 days
- Days to Confluency (Table 2, Exp. Series II, strain 5): 5 days
- Days to Confluency (Table 2, Exp. Series II, strain 6): 5 days
- Days to Confluency (Table 2, Exp. Series II, strain 7): 5 days
- Days to Confluency (Table 2, Exp. Series II, strain 8): 7 days
- Days to Confluency (Table 2, Exp. Series II, strain 9): 6 days
- Days to Confluency (Table 2, Exp. Series II, strain 10): 6 days
- Days to Confluency (Table 2, Exp. Series II, strain 11): 6 days
- Days to Confluency (Table 2, Exp. Series II, strain 12): 6 days
- Days to Confluency (Table 2, Exp. Series II, strain 13): 6 days
- Days to Confluency (Table 2, Exp. Series II, strain 14): 6 days
- Days to Confluency (Table 2, Exp. Series II, strain 15): 6 days
- Days to Confluency (Table 2, Exp. Series II, strain 16): 6 days
- Days to Confluency (Table 2, Exp. Series III, strain 1): 5 days
- Days to Confluency (Table 2, Exp. Series III, strain 2): 5 days
- Days to Confluency (Table 2, Exp. Series III, strain 3): 12 days
- Days to Confluency (Table 2, Exp. Series III, strain 4): 6 days
- Days to Confluency (Table 2, Exp. Series III, strain 5): 5 days
- Days to Confluency (Table 2, Exp. Series III, strain 6): 5 days
- Days to Confluency (Table 2, Exp. Series III, strain 7): 5 days
- Days to Confluency (Table 2, Exp. Series III, strain 8): 5 days
- Days to Confluency (Table 2, Exp. Series III, strain 9): 7 days
- Days to Confluency (Table 2, Exp. Series III, strain 10): 5 days
- Days to Confluency (Table 2, Exp. Series III, strain 11): 5 days
- Days to Confluency (Table 2, Exp. Series III, strain 12): 5 days
- Days to Confluency (Table 2, Exp. Series III, strain 13): 6 days
- Days to Confluency (Table 2, Exp. Series III, strain 14): 5 days
- Days to Confluency (Table 2, Exp. Series III, strain 15): 5 days
- Days to Confluency (Table 2, Exp. Series III, strain 16): 5 days

— patent publication US5637501A, “Apparatus for automatically testing the antibiotic sensitivity of a paraffinophilic microorganism” (Infectech, Inc., priority 1995, dated 1997)
